Experimental findings from patent US20090010979A1, “Method of Controlling Termites” (BAYER CROPSCIENCE LP, priority 2004, published 2009) are described below.

The series is described as follows: Arrestant composition on silica with Premise 75WP distributed in soil: movement of components. The class given is physicochemical. The note with it: after several months. As for the experimental part: (A) Preparation of the arrestant composition: A mixture of 5-methylpentacosane, 11-methylpentacosane, 9-Z-pentacosene, n-pentacosane, and n-hexamethylcosane in proportion of about 11.4:36.3:19.6:27.7:5.0 as a 0.06% (by weight) solution in acetone (0.06 g) was diluted into acetone and mixed with 149.4 g of Zeolex® 7A brand silica (J.M. Huber, Inc. USA) The acetone was removed by evaporation at 50° C. at 3.5 mm Hg to provide a smooth flowable powder. The powder was mixed with 850 g of Premise® 75WP (imidacloprid active ingredient), and milled to a consistent appearance.
(B) Use of the Arrestant Composition of Part (A): The final product is distributed in soil.

`O=[N+]([O-])NC1=NCCN1Cc1ccc(Cl)nc1` [imidacloprid]: the movement in soil entry is recorded as “moves downward”.
